Read-outs that look alike come from different tables or passages of the source. Where only a bound is given, the exact number is not on record here.

For assay [1], the system named is Mycosphaerella graminicola; Anamorph: Septoria tritici. The assay can be described thus: Fungicidal activity: Leaf Blotch of Wheat (SEPTTR). The class given is in vivo. To be noted: Zymoseptoria tritici, wheat leaf blotch; for pest or weed control at 121.5 g/ha: Low Volume (121.5 g/H); for pest or weed control at 100 µg/mL: High Volume (100 ppm). The essentials:
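Compounds were dissolved in acetone, diluted with nine volumes of water containing 110 ppm Triton X-100, and sprayed to run-off on first-leaf Yuma wheat seedlings inoculated with Septoria tritici spores before or after treatment. Plants were held in a dew chamber, then a 20° C. greenhouse. Percent control was derived from disease severity relative to untreated plants.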

The test system of a further assay is Puccinia triticina. In words: Fungicidal activity: Wheat Brown Rust (PUCCRT). In kind it is in vivo. The settings on record: for pest or weed control at 121.5 g/ha: Low Volume (121.5 g/H); for pest or weed control at 100 µg/mL: High Volume (100 ppm). In short, it runs like this: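 Wheat seedlings (Yuma, first leaf) sprayed to run-off with compound in acetone/water with Triton X-100, inoculated with Puccinia triticina before or after treatment. Held overnight in dark dew at 22° C, then greenhouse at 24° C; percent disease control from severity versus untreated plants.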

Setting [2] is: 24 h, 1 Day Protectant, read-out: SEPTTR 1 DP disease control.
[3] abbreviates: 72 h, 3 Day Curative, read-out: SEPTTR 3 DC disease control.
The mark [4] stands for this setting: 24 h, 1 Day Protectant, read-out: PUCCRT 1 DP disease control.
[5] abbreviates: 72 h, 3 Day Curative, read-out: PUCCRT 3 DC disease control.

For `COc1ccnc(C(=O)N[C@H]2COC[C@H](Cc3ccccc3)[C@@H](C3CCCC3)[C@H](C)OC2=O)c1OC(C)=O` [compound 37], the pest or weed control at 121.5 g/ha (in assay [1] (setting [2]); in assay [1] (setting [3]); with Puccinia triticina (setting [4]); with Puccinia triticina (setting [5])) was above 70% each time.
As to `COc1ccnc(C(=O)N[C@H]2COC[C@H](CC3CCCC3)[C@@H](CC3CCCC3)[C@H](C)OC2=O)c1OCOC(C)=O` [compound 26], the pest or weed control at 121.5 g/ha (in assay [1] (setting [2]); in assay [1] (setting [3]); in the assay with Puccinia triticina (setting [4]); with Puccinia triticina (setting [5])) was above 70% each time.
With `COc1ccnc(C(=O)N[C@H]2COC[C@H](Cc3ccc(C(F)(F)F)cc3)[C@@H](Cc3ccc(F)cc3)[C@H](C)OC2=O)c1OCOC(C)=O` [compound 78], the pest or weed control at 121.5 g/ha (in assay [1] (setting [2]); in assay [1] (setting [3]); in the assay with Puccinia triticina (setting [4]); in the assay with Puccinia triticina (setting [5])) was below 70% throughout.
For `COc1ccnc(C(=O)N[C@H]2COC[C@@H]3CCCC[C@H]3[C@@H](C)OC2=O)c1OCOC(C)=O` [compound 5], the pest or weed control at 100 µg/mL (in assay [1] (setting [2]); in assay [1] (setting [3]); with Puccinia triticina (setting [4])) was below 70% each time.
Take `COc1ccnc(C(=O)N[C@H]2COC[C@H](Cc3ccccc3)[C@@H](Cc3ccc(OC(F)(F)F)cc3)[C@H](C)OC2=O)c1OCOC(C)=O` [compound 49]: the pest or weed control at 121.5 g/ha in assay [1] (setting [2]) is above 70%; in assay [1] (setting [3]), below 70%; in the assay on Puccinia triticina (setting [4]) it was above 70%; in the assay with Puccinia triticina (setting [5]), below 70%.
Consider `COc1ccnc(C(=O)N[C@H]2COC[C@H](Cc3ccccc3)[C@@H](CCC(C)C)[C@H](C)OC2=O)c1O` [compound 148], for which the pest or weed control at 100 µg/mL was above 70% in assay [1] (setting [2]), above 70% in assay [1] (setting [3]), below 70% in the assay on Puccinia triticina (setting [4]) and below 70% in the assay on Puccinia triticina (setting [5]).
Turning to `COc1ccnc(C(=O)N[C@H]2COC[C@H](Cc3ccccc3)[C@@H](c3ccccc3)[C@H](C)OC2=O)c1OCOC(C)=O` [compound 53], the pest or weed control at 121.5 g/ha (in assay [1] (setting [2]); in assay [1] (setting [3]); with Puccinia triticina (setting [4]); with Puccinia triticina (setting [5])) was above 70% in each case.
Consider `COc1ccnc(C(=O)N[C@H]2COC[C@H](Cc3ccccc3)[C@@H](Cc3ccccc3)[C@@H](C)OC2=O)c1OCOC(C)=O` [compound 2], for which the pest or weed control at 100 µg/mL (in assay [1] (setting [2]); in assay [1] (setting [3]); in the assay on Puccinia triticina (setting [4]); with Puccinia triticina (setting [5])) was below 70% each time.
As for `COc1ccnc(C(=O)N[C@H]2COC[C@H](Cc3ccccc3)[C@@H](Cc3ccc(OC(F)(F)F)cc3)[C@H](C)OC2=O)c1OCOC(=O)C(C)C` [compound 48], the pest or weed control at 121.5 g/ha is above 70% in assay [1] (setting [2]), above 70% in assay [1] (setting [3]), above 70% in the assay on Puccinia triticina (setting [4]) and below 70% with Puccinia triticina (setting [5]).
Consider `COc1ccnc(C(=O)N[C@H]2COC[C@@H]3CCCC[C@H]3[C@@H](C)OC2=O)c1O` [compound 114], for which the pest or weed control at 100 µg/mL is above 70% in assay [1] (setting [2]), below 70% in assay [1] (setting [3]), above 70% in the assay with Puccinia triticina (setting [4]) and above 70% with Puccinia triticina (setting [5]).
Consider `CCOCC(=O)OCOc1c(OC)ccnc1C(=O)N[C@H]1COC[C@H](Cc2ccc(Cl)cc2)[C@@H](CC(C)C)[C@H](C)OC1=O` [compound 74], for which the pest or weed control at 121.5 g/ha in assay [1] (setting [2]) was above 70%; in assay [1] (setting [3]) it was above 70%; with Puccinia triticina (setting [4]) it was above 70%; in the assay on Puccinia triticina (setting [5]) it was below 70%.
As to `COc1ccnc(C(=O)N[C@H]2COC[C@H](CCCc3ccccc3)[C@@H](CC(C)C)[C@H](C)OC2=O)c1O` [compound 144], the pest or weed control at 100 µg/mL (in assay [1] (setting [2]); in assay [1] (setting [3]); in the assay on Puccinia triticina (setting [4]); in the assay on Puccinia triticina (setting [5])) was above 70% throughout.
For `CCOCC(=O)OCOc1c(OC)ccnc1C(=O)N[C@H]1COC[C@H](Cc2ccccc2)[C@@H](c2ccccc2)[C@H](C)OC1=O` [compound 51], the pest or weed control at 121.5 g/ha in assay [1] (setting [2]) was above 70%; in assay [1] (setting [3]), below 70%; in the assay on Puccinia triticina (setting [4]) it was above 70%; in the assay with Puccinia triticina (setting [5]) it was below 70%.
Regarding `COc1ccnc(C(=O)N[C@H]2COC[C@H](CCC(C)C)[C@@H](CCC(C)C)[C@H](C)OC2=O)c1OCOC(C)=O` [compound 8], the pest or weed control at 100 µg/mL (in assay [1] (setting [2]); in assay [1] (setting [3]); in the assay with Puccinia triticina (setting [4]); in the assay on Puccinia triticina (setting [5])) was above 70% throughout.
As for `CCCC[C@@H]1[C@@H](Cc2ccccc2)COC[C@H](NC(=O)c2nccc(OC)c2O)C(=O)O[C@H]1C` [compound 110], the pest or weed control at 100 µg/mL in assay [1] (setting [2]) is above 70%; in assay [1] (setting [3]), above 70%; in the assay with Puccinia triticina (setting [4]) it was below 70%; in the assay on Puccinia triticina (setting [5]), below 70%.
With `COc1ccnc(C(=O)N[C@H]2COC[C@H](CCCc3ccccc3)[C@@H](Cc3ccccc3)[C@H](C)OC2=O)c1OC(C)=O` [compound 41], the pest or weed control at 121.5 g/ha (in assay [1] (setting [2]); in assay [1] (setting [3]); in the assay with Puccinia triticina (setting [4]); in the assay on Puccinia triticina (setting [5])) was above 70% throughout.
Take `CCCC[C@@H]1[C@@H](Cc2ccc(C(F)(F)F)cc2)COC[C@H](NC(=O)c2nccc(OC)c2O)C(=O)O[C@H]1C` [compound 123]: the pest or weed control at 100 µg/mL (in assay [1] (setting [2]); in assay [1] (setting [3]); with Puccinia triticina (setting [4]); in the assay with Puccinia triticina (setting [5])) was below 70% each time.
Take `COc1ccnc(C(=O)N[C@H]2COC[C@H](Cc3ccc(C(F)(F)F)cc3)[C@@H](Cc3ccc(F)cc3)[C@H](C)OC2=O)c1O` [compound 147]: the pest or weed control at 100 µg/mL in assay [1] (setting [2]) is above 70%; in assay [1] (setting [3]) it was below 70%; in the assay with Puccinia triticina (setting [4]) it was above 70%; in the assay with Puccinia triticina (setting [5]), below 70%.
Turning to `COc1ccnc(C(=O)N[C@H]2COC[C@H](CC3CC3)[C@@H](Cc3ccc(F)cc3)[C@H](C)OC2=O)c1OCOC(C)=O` [compound 104], the pest or weed control at 121.5 g/ha (in assay [1] (setting [2]); in assay [1] (setting [3]); in the assay with Puccinia triticina (setting [4]); in the assay on Puccinia triticina (setting [5])) was above 70% each time.
Turning to `COc1ccnc(C(=O)N[C@H]2COC[C@H](Cc3ccc(C(F)(F)F)cc3)[C@@H](Cc3ccccc3)[C@H](C)OC2=O)c1O` [compound 136], the pest or weed control at 100 µg/mL in assay [1] (setting [2]) was above 70%; in assay [1] (setting [3]) it was below 70%; in the assay with Puccinia triticina (setting [4]) it was above 70%; in the assay on Puccinia triticina (setting [5]), above 70%.
With `COc1ccnc(C(=O)N[C@H]2COC[C@@H]3CCCC[C@H]3[C@H](C)OC2=O)c1OCOC(C)=O` [compound 6], the pest or weed control at 100 µg/mL in assay [1] (setting [2]) is below 70%; in assay [1] (setting [3]), below 70%; with Puccinia triticina (setting [4]), above 70%.
In the case of `COc1ccnc(C(=O)N[C@H]2COC[C@H](Cc3ccc(Cl)cc3)[C@@H](Cc3ccccc3)[C@H](C)OC2=O)c1O` [compound 135], the pest or weed control at 100 µg/mL in assay [1] (setting [2]) was above 70%; in assay [1] (setting [3]) it was below 70%; in the assay with Puccinia triticina (setting [4]), above 70%; with Puccinia triticina (setting [5]), below 70%.
Take `COc1ccnc(C(=O)N[C@H]2COC[C@H](CCC(C)C)[C@@H](Cc3ccccc3)[C@H](C)OC2=O)c1OCOC(C)=O` [compound 44]: the pest or weed control at 121.5 g/ha in assay [1] (setting [2]) was above 70%; in assay [1] (setting [3]) it was above 70%; with Puccinia triticina (setting [4]) it was above 70%; in the assay with Puccinia triticina (setting [5]), below 70%.
Regarding `COc1ccnc(C(=O)N[C@H]2COC[C@H](Cc3ccc(C(F)(F)F)cc3)[C@@H](Cc3ccccc3)[C@H](C)OC2=O)c1OCOC(=O)C(C)C` [compound 57], the pest or weed control at 121.5 g/ha in assay [1] (setting [2]) was above 70%; in assay [1] (setting [3]), above 70%; with Puccinia triticina (setting [4]), above 70%; in the assay on Puccinia triticina (setting [5]), below 70%.
Regarding `CCC[C@H]1COC[C@H](NC(=O)c2nccc(OC)c2OCOC(=O)C(C)C)C(=O)O[C@@H](C)[C@@H]1Cc1ccccc1` [compound 24], the pest or weed control at 121.5 g/ha (in assay [1] (setting [2]); in assay [1] (setting [3]); in the assay with Puccinia triticina (setting [4]); in the assay with Puccinia triticina (setting [5])) was above 70% in each case.
As for `CCC[C@H]1COC[C@H](NC(=O)c2nccc(OC)c2OCOC(=O)C(C)C)C(=O)O[C@@H](C)[C@@H]1c1ccccc1` [compound 99], the pest or weed control at 121.5 g/ha (in assay [1] (setting [2]); in assay [1] (setting [3]); in the assay on Puccinia triticina (setting [4]); with Puccinia triticina (setting [5])) was above 70% each time.
Consider `CCC[C@H]1COC[C@H](NC(=O)c2nccc(OC)c2OC(C)=O)C(=O)O[C@@H](C)[C@@H]1c1ccccc1` [compound 98], for which the pest or weed control at 121.5 g/ha (in assay [1] (setting [2]); in assay [1] (setting [3]); with Puccinia triticina (setting [4]); in the assay with Puccinia triticina (setting [5])) was above 70% throughout.
